# Where two headings read alike, the source gives them in different places.
# Test: Half-life of ADR destruction by UVA light in the presence of test compounds (decrease in absorbance at 480 nm)
# Type: physicochemical
# [1] = UVA light, 100 μM test compound with 0.5 μM riboflavin
# [2] = UVA light, 100 μM test compound alone
Compound,"Half-Life of ADR Destruction, 100 μM Test Compound and 0.5 μM Riboflavin [1] [min]","Half-Life of ADR Destruction, 100 μM Test Compound [2] [min]",further results
"Nc1ccc(N)c(S(=O)(=O)O)c1 [2,5-Diamino Benzene sulfonic acid]",27.4,–,–
CN(C)c1ccc(C(=O)O)cc1 [4-(Dimethylamino) Benzoic Acid],75.3,–,–
Nc1ccccc1S(=O)(=O)O [2-Amino Benzenesulfonic acid],20.1,–,–
Nc1nc2c(ncn2[C@@H]2O[C@H](CO)[C@@H](O)[C@H]2O)c(=O)[nH]1 [Guanosine],14.3,75.3,–
Cn1c(=O)[nH]c2[nH]c(=O)[nH]c2c1=O [1-Methyl Uric acid],33.4,–,–
O=C(O)c1cccc(O)c1 [3-Hydroxy Benzoic Acid],23.2,–,–
c1ccc(-c2cc3ccccc3[nH]2)cc1 [2-Phenyl Indole],14.3,–,–
"COc1ccc2c(c1)c(CC(=O)O)c(C)n2C(=O)c1ccc(Cl)cc1 [Indomethacin, 1-(4-Chlorobenzoyl)-5-Methoxy-2-Methyl-indole-3-acetic acid, reference compound]",–,100.3,–
O=C(O)c1ccccc1C(=O)c1ccccc1 [2-Benzophenone-carboxylic acid],–,–,"Half-Life of ADR Destruction, 100 μM Test Compound: 50.2 min"
COc1ccc(CCO)cc1 [4-Methoxy Phenylethyl Alcohol],5.47,43.0,–
O=C(O)c1cccc2c1-c1ccccc1C2=O [9-Fluorenone-4-carboxylic acid],43.0,50.2,–
"Cc1cc(NC(=O)C2=C(O)c3ccccc3S(=O)(=O)N2C)no1 [Isoxicam, reference compound]",–,75.3,–
Nc1ccc(Cc2ccccc2)cc1 [4-Aminodiphenylmethane],5.57,43.0,–
"COc1cc(OC)c2ccc(=O)oc2c1 [5,7-Dimethoxycoumarin]",23.2,27.4,–
O=C(O)c1ccc2[nH]ccc2c1 [Indole-5-carboxylic acid],12.0,–,–
NC(=O)c1ccc(N)cc1 [4-Aminobenzamide],13.4 ± 4.7,–,–
O=C(O)C(O)Cc1c[nH]c2ccccc12 (centres unmarked) [3-Indolelactic acid],6.40,–,–
"O=C1c2c(O)cccc2Cc2cccc(O)c21 [1,8-Dihydroxyanthrone]",30.1,27.4,–
COc1ccc(CC(=O)O)cc1 [4-Methoxy Phenylacetic Acid],30.1,50.2,–

Compound,"Half-Life of ADR Destruction, 100 μM Test Compound and 0.5 μM Riboflavin [1] [min]","Half-Life of ADR Destruction, 100 μM Test Compound [2] [min]",further results
OCCc1ccc(O)cc1 [4-Hydroxy Phenylethyl Alcohol],50.2,–,–
"O=C1c2ccccc2C(=O)c2cnccc21 [Benz[γ]isoquinoline-5,10-dione]",<0.261,<0.355,–
O=C(O)c1cccc2ccccc12 [Naphthalene-1-carboxylic acid],43.0,50.2,–
O=C(O)c1ccc2c(c1)C(=O)c1ccccc1-2 [9-Fluorenone-2-carboxylic acid],43.0,–,–
Nc1ccc(CCO)cc1 [4-Amino Phenylethyl Alcohol],10.8,–,–
CC(C(=O)O)c1ccccc1 (stereo not drawn) [α-Methyl-Phenylacetic Acid],50.2,–,–
"O=C1CCc2ccccc2N1 [3,4-Dihydro-2(1H)-quinolinone]",–,–,"Half-Life of ADR Destruction, 100 μM Test Compound and 0.5 μM Riboflavin: 20.1 min"
Nc1cccc(CO)c1 [3-Amino Benzyl Alcohol],7.34,–,–
Nc1cccc(CC(=O)O)c1 [3-Amino Phenylacetic acid],13.7,–,–
N[C@@H](Cc1ccc2ccccc2c1)C(=O)O [3-(2-Naphthyl)alanine],27.4,–,–
"Nc1cc(N)cc(C(=O)O)c1 [3,5-Diamino Benzoic Acid]",75.3,–,–
O=C(O)CCC(=O)c1ccc2ccccc2c1 [γ-Oxo-2-naphthalenebutyric acid],8.18,8.36,–
CCCCCCc1ccc(N)cc1 [4-Hexyl Aniline],5.28,–,–
COc1ccc(O)cc1 [4-Methoxy Phenol],43.0,50.2,–
COc1ccc2[nH]c(C)cc2c1 [5-Methoxy-2-methyl Indole],–,–,"Half-Life of ADR Destruction, 100 μM Test Compound: 27.4 min; Half-Life of ADR Destruction, 100 μM Test Compound and 0.5 μM Riboflavin: 7.00 min"
CC(C)(C)c1ccc(N)cc1 [4-tert-Butyl Aniline],27.4,–,–
COc1ccc(C=CC=O)cc1 [4-Methoxy Cinnamaldehyde],50.2,–,–
COc1cccc(N)c1 [3-Methoxy Aniline],30.1,–,–
O=C(O)CCc1c[nH]c2ccccc12 [Indole-3-propionic acid],9.5 ± 3.5,–,–

Compound,"Half-Life of ADR Destruction, 100 μM Test Compound and 0.5 μM Riboflavin [1] [min]","Half-Life of ADR Destruction, 100 μM Test Compound [2] [min]",further results
"COc1ccc2c(c1)c(CC(=O)OCC(=O)O)c(C)n2C(=O)c1ccc(Cl)cc1 [Acemetacin, {[1-(4-Chlorobenzoyl)-5-methoxy-2-methylindole-3-yl]acetoxy} acetic acid, reference compound]",4.63,–,–
"COc1ccc2cc(C(=O)CCC(=O)O)c(OC)cc2c1 [3,6-Dimethoxy-γ-oxo-2-naphthalenebutyric acid]",3.86,30.1,–
"Nc1ccc(C(=O)c2ccc(N)cc2)cc1 [4,4′-Diamino-benzophenone]",27.4,–,–
CC(=O)c1cccc2ccccc12 [1-Acetonaphthone],6.54,6.69,–
O=S(=O)=C1C=CC=C(S(=O)(=O)O)C1 [3-Sulfonyl-benzenesulfonic acid],50.2,–,–
NC(C(=O)O)c1ccc(O)cc1 (centres unmarked) [4-Hydroxy Phenylglycine],24.2 ± 19.0,–,–
Nc1cccc(F)c1 [3-Fluoro Aniline],5.90,–,–
O=C(O)c1cccc(C(=O)c2ccccc2)c1 [3-Benzophenone-carboxylic acid],–,–,"Half-Life of ADR Destruction, 100 μM Test Compound: 20.1 min; Half-Life of ADR Destruction, 100 μM Test Compound and 0.5 μM Riboflavin: 15.8 min"
NCc1ccc(N)cc1 [4-Amino Benzylamine],7.34 ± 1.13,–,–
O=C(c1ccccc1)c1ccccn1 [2-Benzoylpyridine],100.3,100.3,–
4-Ethoxyphenyl-2-furyl ketone,11.2,12.5,–
COc1cccc(C(=O)O)c1 [3-Methoxy Benzoic Acid],–,43.0,–
"COc1cc(C=CC(=O)O)cc(OC)c1O [3,5-Dimethoxy-4-Hydroxy Cinnamic Acid]",50.2,75.3,–
CCc1ccc[nH]1 [2-Ethyl Pyrrole],10.0,–,–
O=C(O)c1cc(=O)c2ccccc2o1 [4-Chromone-2-carboxylic acid],14.3,15.8,–
COc1ccc(C(=O)O)cc1 [4-Methoxy Benzoic Acid],33.5,–,–
"Cc1cc2cccc(C)c2[nH]1 [2,7-Dimethyl Indole]",6.27,–,–
Nc1ccc2c(O)cc(S(=O)(=O)O)cc2c1 [7-Amino-4-hydroxy-2-naphthalenesulfonic acid],30.1,–,–
COc1cccc(C=CC(=O)O)c1 [3-Methoxy Cinnamic Acid],21.5,43.0,–
